Test: Release (dissolution) profile of capsules, USP Apparatus 2 (paddle)
Type: physicochemical
Description: USP Apparatus 2 (Paddle Apparatus) is described, for example, in the United States Pharmacopeial Convention, Feb. 1, 2012, Chapter <711> (“Dissolution”), incorporated by reference herein in its entirety. See http://www.usp.org/sites/default/files/usp_pdf/EN/USPNF/revisions/m99470-gc_711.pdf. The assembly from Apparatus 1 is used, except that a paddle formed from a blade and a shaft is used as the stirring element. The shaft is positioned so that its axis is not more than 2 mm from the vertical axis of the vessel at any point and rotates smoothly without significant wobble that could affect the results. The vertical center line of the blade passes through the axis of the shaft so that the bottom of the blade is flush with the bottom of the shaft. A distance of 25±2 mm between the bottom of the blade and the inside bottom of the vessel is maintained during the test. The metallic or suitably inert, rigid blade and shaft comprise a single entity. A suitable two-part detachable design may be used provided the assembly remains firmly engaged during the test. The paddle blade and shaft may be coated with a suitable coating so as to make them inert. The dosage unit is allowed to sink to the bottom of the vessel before rotation of the blade is started. A small, loose piece of nonreactive material, such as not more than a few turns of wire helix, may be attached to dosage units that would otherwise float. Other validated sinker devices may be used.
Unless otherwise specified, the release profiles for capsules were measured using USP Apparatus 2 (paddle).
All release profiles disclosed in Tables 3c-3p were measured with USP Apparatus 2 (paddle) at 50 rpm in 500 mL of aqueous sodium phosphate at a concentration of 0.05 M (pH=6.8). The values in a given table relate to capsules obtained from the same batch. Values shown represent mean values over a number of dissolution tests (“n” in each table) in each case.

mean value (n = 4) of % of Compound 1 released (Table 3p: size 4 capsule, 0.5 mg Compound 1, Poloxamer 188:food grade GMS 30:70, 735 min): 96.1%
mean value (n = 4) of % of Compound 1 released (Table 3q: size 4 capsule, 0.5 mg Compound 1, Poloxamer 188:food grade GMS 30:70, 30 min): 6.2%
mean value (n = 4) of % of Compound 1 released (Table 3q: size 4 capsule, 0.5 mg Compound 1, Poloxamer 188:food grade GMS 30:70, 60 min): 13.7%
mean value (n = 4) of % of Compound 1 released (Table 3q: size 4 capsule, 0.5 mg Compound 1, Poloxamer 188:food grade GMS 30:70, 120 min): 27.3%
mean value (n = 4) of % of Compound 1 released (Table 3q: size 4 capsule, 0.5 mg Compound 1, Poloxamer 188:food grade GMS 30:70, 180 min): 40.3%
mean value (n = 4) of % of Compound 1 released (Table 3q: size 4 capsule, 0.5 mg Compound 1, Poloxamer 188:food grade GMS 30:70, 240 min): 52.5%
mean value (n = 4) of % of Compound 1 released (Table 3q: size 4 capsule, 0.5 mg Compound 1, Poloxamer 188:food grade GMS 30:70, 360 min): 74.2%
mean value (n = 4) of % of Compound 1 released (Table 3q: size 4 capsule, 0.5 mg Compound 1, Poloxamer 188:food grade GMS 30:70, 480 min): 85.5%
mean value (n = 4) of % of Compound 1 released (Table 3q: size 4 capsule, 0.5 mg Compound 1, Poloxamer 188:food grade GMS 30:70, 600 min): 91.5%
mean value (n = 4) of % of Compound 1 released (Table 3q: size 4 capsule, 0.5 mg Compound 1, Poloxamer 188:food grade GMS 30:70, 720 min): 93.4%
mean value (n = 4) of % of Compound 1 released (Table 3q: size 4 capsule, 0.5 mg Compound 1, Poloxamer 188:food grade GMS 30:70, 735 min): 94.5%
mean value (n = 6) of % of Compound 1 released (Table 3r: size 4 capsule, 0.03 mg Compound 1, Poloxamer 188:food grade GMS 30:70, 60 min): 11%
mean value (n = 6) of % of Compound 1 released (Table 3r: size 4 capsule, 0.03 mg Compound 1, Poloxamer 188:food grade GMS 30:70, 120 min): 23%
mean value (n = 6) of % of Compound 1 released (Table 3r: size 4 capsule, 0.03 mg Compound 1, Poloxamer 188:food grade GMS 30:70, 180 min): 33%
mean value (n = 6) of % of Compound 1 released (Table 3r: size 4 capsule, 0.03 mg Compound 1, Poloxamer 188:food grade GMS 30:70, 240 min): 43%
mean value (n = 6) of % of Compound 1 released (Table 3r: size 4 capsule, 0.03 mg Compound 1, Poloxamer 188:food grade GMS 30:70, 360 min): 62%
mean value (n = 6) of % of Compound 1 released (Table 3r: size 4 capsule, 0.03 mg Compound 1, Poloxamer 188:food grade GMS 30:70, 480 min): 77%
mean value (n = 6) of % of Compound 1 released (Table 3r: size 4 capsule, 0.03 mg Compound 1, Poloxamer 188:food grade GMS 30:70, 600 min): 87%
mean value (n = 6) of % of Compound 1 released (Table 3r: size 4 capsule, 0.03 mg Compound 1, Poloxamer 188:food grade GMS 30:70, 720 min): 91%
mean value (n = 6) of % of Compound 1 released (Table 3r: size 4 capsule, 0.03 mg Compound 1, Poloxamer 188:food grade GMS 30:70, 840 min): 95%
mean value (n = 6) of % of Compound 1 released (Table 3s-1: Storage time = 0, size 4 capsule, 0.03 mg Compound 1, Poloxamer 188:food grade GMS 30:70, 60 min): 16.7%
mean value (n = 6) of % of Compound 1 released (Table 3s-1: Storage time = 0, size 4 capsule, 0.03 mg Compound 1, Poloxamer 188:food grade GMS 30:70, 120 min): 27.5%
mean value (n = 6) of % of Compound 1 released (Table 3s-1: Storage time = 0, size 4 capsule, 0.03 mg Compound 1, Poloxamer 188:food grade GMS 30:70, 180 min): 38.3%
mean value (n = 6) of % of Compound 1 released (Table 3s-1: Storage time = 0, size 4 capsule, 0.03 mg Compound 1, Poloxamer 188:food grade GMS 30:70, 240 min): 50.3%
mean value (n = 6) of % of Compound 1 released (Table 3s-1: Storage time = 0, size 4 capsule, 0.03 mg Compound 1, Poloxamer 188:food grade GMS 30:70, 360 min): 72.3%
mean value (n = 6) of % of Compound 1 released (Table 3s-1: Storage time = 0, size 4 capsule, 0.03 mg Compound 1, Poloxamer 188:food grade GMS 30:70, 480 min): 88.7%
mean value (n = 6) of % of Compound 1 released (Table 3s-1: Storage time = 0, size 4 capsule, 0.03 mg Compound 1, Poloxamer 188:food grade GMS 30:70, 600 min): 96.0%
mean value (n = 6) of % of Compound 1 released (Table 3s-2: Storage time = 2 weeks, size 4 capsule, 0.03 mg Compound 1, Poloxamer 188:food grade GMS 30:70, 60 min): 16.0%
mean value (n = 6) of % of Compound 1 released (Table 3s-2: Storage time = 2 weeks, size 4 capsule, 0.03 mg Compound 1, Poloxamer 188:food grade GMS 30:70, 120 min): 27.7%
mean value (n = 6) of % of Compound 1 released (Table 3s-2: Storage time = 2 weeks, size 4 capsule, 0.03 mg Compound 1, Poloxamer 188:food grade GMS 30:70, 180 min): 39.7%
mean value (n = 6) of % of Compound 1 released (Table 3s-2: Storage time = 2 weeks, size 4 capsule, 0.03 mg Compound 1, Poloxamer 188:food grade GMS 30:70, 240 min): 52.2%
mean value (n = 6) of % of Compound 1 released (Table 3s-2: Storage time = 2 weeks, size 4 capsule, 0.03 mg Compound 1, Poloxamer 188:food grade GMS 30:70, 360 min): 74.6%
mean value (n = 6) of % of Compound 1 released (Table 3s-2: Storage time = 2 weeks, size 4 capsule, 0.03 mg Compound 1, Poloxamer 188:food grade GMS 30:70, 480 min): 89.4%
mean value (n = 6) of % of Compound 1 released (Table 3s-2: Storage time = 2 weeks, size 4 capsule, 0.03 mg Compound 1, Poloxamer 188:food grade GMS 30:70, 600 min): 96.7%
mean value (n = 6) of % of Compound 1 released (Table 3h: size 4 capsule, 0.03 mg Compound 1, Poloxamer 188:food grade GMS 50:50, 60 min): 17.9%
mean value (n = 6) of % of Compound 1 released (Table 3h: size 4 capsule, 0.03 mg Compound 1, Poloxamer 188:food grade GMS 50:50, 120 min): 35.9%
mean value (n = 6) of % of Compound 1 released (Table 3h: size 4 capsule, 0.03 mg Compound 1, Poloxamer 188:food grade GMS 50:50, 180 min): 51.7%
mean value (n = 6) of % of Compound 1 released (Table 3h: size 4 capsule, 0.03 mg Compound 1, Poloxamer 188:food grade GMS 50:50, 240 min): 67.9%
mean value (n = 6) of % of Compound 1 released (Table 3h: size 4 capsule, 0.03 mg Compound 1, Poloxamer 188:food grade GMS 50:50, 300 min): 83.6%
mean value (n = 6) of % of Compound 1 released (Table 3h: size 4 capsule, 0.03 mg Compound 1, Poloxamer 188:food grade GMS 50:50, 360 min): 92.3%
mean value (n = 6) of % of Compound 1 released (Table 3h: size 4 capsule, 0.03 mg Compound 1, Poloxamer 188:food grade GMS 50:50, 480 min): 98.1%
mean value (n = 4) of % of Compound 1 released (Table 3d: size 4 capsule, 0.5 mg Compound 1, Poloxamer 188:food grade GMS 70:30, 30 min): 13.8%
mean value (n = 4) of % of Compound 1 released (Table 3d: size 4 capsule, 0.5 mg Compound 1, Poloxamer 188:food grade GMS 70:30, 60 min): 60.2%
mean value (n = 4) of % of Compound 1 released (Table 3d: size 4 capsule, 0.5 mg Compound 1, Poloxamer 188:food grade GMS 70:30, 120 min): 92.1%
release rate relative to immediate release composition (capsule, Gelucire 50/13:Kolliphor RH40 50:50 (FIG. 3)): substantially reduced
change of release rate after storage (capsule, Gelucire 50/13:Kolliphor RH40 75:25, storage at 40° C. and 75% RH over time (FIG. 4)): significantly increased
release rate, 90:10 ratio relative to 80:20 ratio (capsule, Gelucire 50/13:Kolliphor RH40 90:10 vs 80:20 (FIG. 3)): further reduced
effect of curing in stabilizing the release profile (research grade GMS (lower monoester content) instead of food grade GMS): not as effective
Compound: O=C(O)COC[C@H]1CC[C@H](COC(=O)N(c2ccccc2)c2ccc(Cl)cc2)CC1 [Compound 1, 2-(((1r,4r)-4-(((4-chlorophenyl)(phenyl)carbamoyloxy)methyl)cyclohexyl)methoxy)acetic acid]
